System: membrane preparation from dog kidney cortex
Assay: Inactivation by membrane preparation from dog kidney cortex
Assay type: in vitro ADME
Text: A unique proteolytic product separated by HPLC on a reverse phase column appears as a single peak which elutes prior to the intact peptide.

CC[C@H](C)[C@@H]1NC(=O)[C@H](CCCNC(=N)N)NC(=O)[C@H](CC(=O)O)NC(=O)[C@H](CCSC)NC(=O)[C@H](CCCNC(=N)N)NC(=O)CNC(=O)CNC(=O)[C@H](Cc2ccccc2)NC(=O)[C@@H](NC(=O)[C@H](CO)NC(=O)[C@H](CO)NC(=O)[C@H](CCCNC(=N)N)NC(=O)[C@H](CCCNC(=N)N)NC(=O)[C@H](CC(C)C)NC(=O)[C@@H](N)CO)CSSC[C@@H](C(=O)N[C@@H](CC(N)=O)C(=O)N[C@@H](CO)C(=O)N[C@@H](Cc2ccccc2)C(=O)N[C@@H](CCCNC(=N)N)C(=O)N[C@@H](Cc2ccc(O)cc2)C(=O)O)NC(=O)CNC(=O)[C@H](CC(C)C)NC(=O)CNC(=O)[C@H](CO)NC(=O)[C@H](CCC(N)=O)NC(=O)[C@H](C)NC(=O)CNC1=O [ANF-(99-126)]
position of the inactivating cleavage of the ring structure: between Cys-105 and Phe-106

From US5665861A, “Cardiodilatin fragment, process for preparing same and use thereof” (HaemoPep Pharma GmbH, priority 1987, dated 1997)
